Where two headings read alike, the source gives them in different places.
Test system: primary murine skeletal myocytes
Assay: TAG accumulation in primary murine skeletal myocytes
Assay type: cell-based
Conditions: Mus musculus, read-out: Activity Score (IC50), triacylglyceride (TAG) accumulation
[1] = primary murine skeletal myocytes

COc1ccc(-c2csc(NC(=O)c3ccc(OCC(N)=O)cc3)n2)c(Cl)c1 [Cpd. 57, 4-(2-amino-2-oxoethoxy)-N-(4-(2-chloro-4-methoxyphenyl)thiazol-2-yl)benzamide]
IC50 [1]: 1 to 10 µM

COc1ccc(-c2csc(NC(=O)c3ccc(NCC(=O)N(C)C)cc3)n2)c(Cl)c1 [compound 72, N-(4-(2-chloro-4-methoxyphenyl)thiazol-2-yl)-4-((2-(dimethylamino)-2-oxoethyl)amino)benzamide]
IC50 [1]: < 1 µM

COc1ccc(Cc2cnc(NC(=O)c3ccc(OCC(=O)N4CCOCC4)c(OC)c3)s2)cc1 [Cpd. 98, 3-methoxy-N-(5-(4-methoxybenzyl)thiazol-2-yl)-4-(2-morpholino-2-oxoethoxy)benzamide]
IC50 [1]: 1 to 10 µM

COc1ccc(-c2csc(NC(=O)c3ccc(NCC(=O)N4CCOCC4)c(OC)c3)n2)cc1 [Cpd. 75, 3-methoxy-N-(4-(4-methoxyphenyl)thiazol-2-yl)-4-((2-morpholino-2-oxoethyl)amino)benzamide]
IC50 [1]: < 1 µM

COc1ccc(-c2csc(NC(=O)c3ccc(OCC(=O)NCc4ccccc4)c(OC)c3)n2)cc1 [Cpd. 23, 4-(2-(benzylamino)-2-oxoethoxy)-3-methoxy-N-(4-(4-methoxyphenyl)thiazol-2-yl)benzamide]
IC50 [1]: 1 to 10 µM

CCOc1ccc(-c2csc(NC(=O)c3ccc(OCC(=O)N4CCOCC4)c(OC)c3)n2)cc1 [Cpd. 28, N-(4-(4-ethoxyphenyl)thiazol-2-yl)-3-methoxy-4-(2-morpholino-2-oxoethoxy)benzamide]
IC50 [1]: < 1 µM

COc1ccc(-c2cnc(NC(=O)c3ccc(OCC(=O)N4CCOCC4)c(OC)c3)s2)cc1 [compound 80, 3-methoxy-N-(5-(4-methoxyphenyl)thiazol-2-yl)-4-(2-morpholino-2-oxoethoxy)benzamide]
IC50 [1]: > 10 µM

COc1ccc(-c2csc(NC(=O)c3ccc(OCC(=O)N4CCSCC4)c(OC)c3)n2)cc1 [Cpd. 11, 3-methoxy-N-(4-(4-methoxyphenyl)thiazol-2-yl)-4-(2-oxo-2-thiomorpholinoethoxy)benzamide]
IC50 [1]: < 1 µM

COc1cc(C(=O)Nc2nc(Cc3ccccc3)cs2)ccc1OCC(=O)N1CCOCC1 [Cpd. 85, N-(4-benzylthiazol-2-yl)-3-methoxy-4-(2-morpholino-2-oxoethoxy)benzamide]
IC50 [1]: 1 to 10 µM

COc1ccc(-c2csc(NC(=O)c3ccc(OCCN4CCOCC4)c(OC)c3)n2)cc1 [Cpd. 90, 3-methoxy-N-(4-(4-methoxyphenyl)thiazol-2-yl)-4-(2-morpholinoethoxy)benzamide]
IC50 [1]: 1 to 10 µM

COc1ccc(-c2csc(NC(=O)c3ccc(OCC(=O)N4CCC(=O)CC4)c(OC)c3)n2)cc1 [Cpd. 12, 3-methoxy-N-(4-(4-methoxyphenyl)thiazol-2-yl)-4-(2-oxo-2-(4-oxopiperidin-1-yl)ethoxy)benzamide]
IC50: 1 to 10 µM

CCNC(=O)COc1ccc(C(=O)Nc2nc(-c3ccc(OC)cc3Cl)cs2)cc1 [Cpd. 59, N-(4-(2-chloro-4-methoxyphenyl)thiazol-2-yl)-4-(2-(ethylamino)-2-oxoethoxy)benzamide]
IC50 [1]: < 1 µM

COc1cc(C(=O)Nc2ncc(-c3ccccc3)s2)ccc1OCC(=O)N1CCOCC1 [compound 79, 3-methoxy-4-(2-morpholino-2-oxoethoxy)-N-(5-phenylthiazol-2-yl)benzamide]
IC50 [1]: > 10 µM

COc1ccc(-c2csc(NC(=O)c3ccc(OCC(=O)N4CCOCC4)c(OC)c3)n2)cc1OC [Cpd. 38, N-(4-(3,4-dimethoxyphenyl)thiazol-2-yl)-3-methoxy-4-(2-morpholino-2-oxoethoxy)benzamide]
IC50 [1]: 1 to 10 µM

COc1cc(C(=O)Nc2cccc(-c3ccccc3)c2)ccc1OCC(=O)N1CCOCC1 [Cpd. 83, N-([1,1′-biphenyl]-3-yl)-3-methoxy-4-(2-morpholino-2-oxoethoxy)benzamide]
IC50 [1]: > 10 µM

COc1cc(C(=O)Nc2nc(-c3ccc(C)cc3)cs2)ccc1OCC(=O)N1CCOCC1 [Cpd. 30, 3-methoxy-4-(2-morpholino-2-oxoethoxy)-N-(4-(p-tolyl)thiazol-2-yl)benzamide]
IC50 [1]: < 1 µM

COc1ccc(-c2csc(NC(=O)c3ccc(N)c(OC)c3)n2)cc1 [compound 77, 4-amino-3-methoxy-N-(4-(4-methoxyphenyl)thiazol-2-yl)benzamide]
IC50 [1]: 1 to 10 µM

COc1ccc(-c2csc(NC(=O)c3ccc(OCC(=O)N(C)C)c(OC)c3)n2)cc1 [Cpd. 19, 4-(2-(dimethylamino)-2-oxoethoxy)-3-methoxy-N-(4-(4-methoxyphenyl)thiazol-2-yl)benzamide]
IC50 [1]: 1 to 10 µM

CNC(=O)COc1ccc(C(=O)Nc2nc(-c3ccc(OC)cc3Cl)cs2)cc1 [Cpd. 58, N-(4-(2-chloro-4-methoxyphenyl)thiazol-2-yl)-4-(2-(methylamino)-2-oxoethoxy)benzamide]
IC50 [1]: < 1 µM

COc1cc(C(=O)Nc2nc(-c3ccc(Cl)cc3)cs2)ccc1OCC(=O)N1CCOCC1 [Cpd. 31, N-(4-(4-chlorophenyl)thiazol-2-yl)-3-methoxy-4-(2-morpholino-2-oxoethoxy)benzamide]
IC50 [1]: < 1 µM

COc1cccc(-c2csc(NC(=O)c3ccc(OCC(=O)N4CCOCC4)c(OC)c3)n2)c1 [Cpd. 35, 3-methoxy-N-(4-(3-methoxyphenyl)thiazol-2-yl)-4-(2-morpholino-2-oxoethoxy)benzamide]
IC50 [1]: 1 to 10 µM

COc1ccc(-c2csc(NC(=O)c3ccc(OCC(=O)N4CCN(S(C)(=O)=O)CC4)c(OC)c3)n2)cc1 [Cpd. 13, 3-methoxy-N-(4-(4-methoxyphenyl)thiazol-2-yl)-4-(2-(4-(methylsulfonyl)piperazin-1-yl)-2-oxoethoxy)benzamide]
IC50 [1]: > 10 µM

COCCNC(=O)CNc1ccc(C(=O)Nc2nc(-c3ccc(OC)cc3)cs2)cc1 [compound 69, 4-((2-((2-methoxyethyl)amino)-2-oxoethyl)amino)-N-(4-(4-methoxyphenyl)thiazol-2-yl)benzamide]
IC50 [1]: > 10 µM

CNC(=O)COc1ccc(C(=O)Nc2nc(-c3ccc(OC)cc3)cs2)cc1OC [Cpd. 18, 3-methoxy-N-(4-(4-methoxyphenyl)thiazol-2-yl)-4-(2-(methylamino)-2-oxoethoxy)benzamide]
IC50 [1]: < 1 µM

COCCCNC(=O)COc1ccc(C(=O)Nc2nc(-c3ccc(OC)cc3)cs2)cc1OC [Cpd. 21, 3-methoxy-N-(4-(4-methoxyphenyl)thiazol-2-yl)-4-(2-((3-methoxypropyl)amino)-2-oxoethoxy)benzamide]
IC50 [1]: 1 to 10 µM

COc1ccccc1-c1csc(NC(=O)c2ccc(OCC(=O)N3CCOCC3)cc2)n1 [Cpd. 50, N-(4-(2-methoxyphenyl)thiazol-2-yl)-4-(2-morpholino-2-oxoethoxy)benzamide]
IC50 [1]: < 1 µM

COc1cc(C(=O)Nc2nc(-c3ccc(C)cc3)cs2)ccc1O [Cpd. 3, 4-hydroxy-3-methoxy-N-(4-(p-tolyl)thiazol-2-yl)benzamide]
IC50 [1]: > 10 µM

Cc1cccc(-c2csc(NC(=O)c3ccc(OCC(=O)N4CCOCC4)cc3)n2)c1 [Cpd. 51, 4-(2-morpholino-2-oxoethoxy)-N-(4-(m-tolyl)thiazol-2-yl)benzamide]
IC50 [1]: < 1 µM

O=C(Nc1nc(-c2ccccc2)cs1)c1cccc(OCC(=O)N2CCOCC2)c1 [Cpd. 95, 3-(2-morpholino-2-oxoethoxy)-N-(4-phenylthiazol-2-yl)benzamide]
IC50 [1]: 1 to 10 µM

COc1ccc(-c2csc(NC(=O)c3ccc(NCC(=O)N(C)C)cc3)n2)cc1 [compound 68, 4-((2-(dimethylamino)-2-oxoethyl)amino)-N-(4-(4-methoxyphenyl)thiazol-2-yl)benzamide]
IC50 [1]: < 1 µM

COc1ccc(-c2csc(NC(=O)c3ccc(OCC(=O)NCc4ccccn4)c(OC)c3)n2)cc1 [Cpd. 24, 3-methoxy-N-(4-(4-methoxyphenyl)thiazol-2-yl)-4-(2-oxo-2-((pyridin-2-ylmethyl)amino)ethoxy) Benzamide]
IC50 [1]: > 10 µM

COc1ccc(-c2csc(NC(=O)c3ccc(OCC(=O)NC4CCC4)c(OC)c3)n2)cc1 [Cpd. 22, 4-(2-(cyclobutylamino)-2-oxoethoxy)-3-methoxy-N-(4-(4-methoxyphenyl)thiazol-2-yl)benzamide]
IC50 [1]: < 1 µM

COc1ccc(-c2csc(NCc3ccc(OCC(=O)N4CCOCC4)c(OC)c3)n2)cc1 [Cpd. 89, 2-(2-methoxy-4-(((4-(4-methoxyphenyl)thiazol-2-yl)amino)methyl)phenoxy)-1-morpholinoethan-1-one]
IC50 [1]: 1 to 10 µM

COc1ccc(-c2csc(NC(=O)c3ccc(OCC(=O)N(C)C)cc3)n2)c(Cl)c1 [Cpd. 60, N-(4-(2-chloro-4-methoxyphenyl)thiazol-2-yl)-4-(2-(dimethylamino)-2-oxoethoxy)benzamide]
IC50 [1]: < 1 µM

COc1cc(C(=O)Nc2nc(-c3ccc(O)cc3)cs2)ccc1OCC(=O)N1CCOCC1 [Cpd. 27, N-(4-(4-hydroxyphenyl)thiazol-2-yl)-3-methoxy-4-(2-morpholino-2-oxoethoxy)benzamide]
IC50 [1]: < 1 µM

COc1ccc(-c2csc(NC(=O)c3ccc(OCC(=O)N4CCOCC4)cc3)n2)c(F)c1 [Cpd. 56, N-(4-(2-fluoro-4-methoxyphenyl)thiazol-2-yl)-4-(2-morpholino-2-oxoethoxy)benzamide]
IC50 [1]: < 1 µM

COc1ccc(-c2csc(NC(=O)c3ccc(OCC(=O)N4CCOCC4)cn3)n2)cc1 [Cpd. 92, N-(4-(4-methoxyphenyl)thiazol-2-yl)-5-(2-morpholino-2-oxoethoxy)picolinamide]
IC50 [1]: > 10 µM

COc1ccc(-c2csc(NC(=O)c3ccc(NCC(=O)N4CCOCC4)cc3)n2)c(Cl)c1 [compound 70, N-(4-(2-chloro-4-methoxyphenyl)thiazol-2-yl)-4-((2-morpholino-2-oxoethyl)amino)benzamide]
IC50 [1]: < 1 µM

Cc1ccccc1-c1csc(NC(=O)c2ccc(OCC(=O)N3CCOCC3)cc2)n1 [Cpd. 47, 4-(2-morpholino-2-oxoethoxy)-N-(4-(o-tolyl)thiazol-2-yl)benzamide]
IC50 [1]: < 1 µM

COc1cccc(-c2csc(NC(=O)c3cccc(OCC(=O)N4CCOCC4)c3)n2)c1 [Cpd. 96, N-(4-(3-methoxyphenyl)thiazol-2-yl)-3-(2-morpholino-2-oxoethoxy)benzamide]
IC50 [1]: 1 to 10 µM

COc1ccc(-c2csc(NC(=O)c3ccc(OCC(=O)NCCN4CCCCC4)c(OC)c3)n2)cc1 [Cpd. 14, 3-methoxy-N-(4-(4-methoxyphenyl)thiazol-2-yl)-4-(2-oxo-2-((2-(piperidin-1-yl)ethyl)amino)ethoxy)benzamide]
IC50 [1]: 1 to 10 µM

— US11028061B2, “Modulators of myocyte lipid accumulation and insulin resistance and methods of use thereof” (Sanford Burnham Prebys Medical Discovery Institute, priority 2015, dated 2021)
